# Square brackets hold non-standard residues; d marks the D form. Peptide text beside a SMILES is read from it. * marks the point of attachment. Nva = CCC[C@H](N)C(=O)O; Cbz = O=C(OCc1ccccc1)*
# Columns and labels:
# HUE cells [1] = assay: DNA fragmentation assay; type: cell-based, human; settings: 250 µM caspase inhibitor 1 h before 10 µM PSI, 18 h
# Procedure: • a. Analysis of PSI-induced DNA fragmentation by agarose gel electrophoresis. […] Neither caspase inhibitor (Ac-YVAD-CHO 250 µM, lane 4; Ac-DEVD-CHO 250 µM, lane 5) nor DMSO (lane 6) induced the characteristic pattern of DNA fragmentation. M1 and M2: DNA size markers (kb). • b. Immunoblot analysis of HUE cell lysates after incubation with PSI. […] Equal loading was controlled by using an antibody directed against GAPDH enzyme.
# HUE cells which had been plated at 20000 cells/cm^2 24 hours before the assay, were treated with 250 µM of the caspase inhibitors Ac-YVAD-CHO or Ac-DEVO-CHO (Peptide Institute, Osaka, Japan) or the equivalent volume of dimethylsulfoxide (DMSO) for 1 h prior to additon of the proteasomal inhibitors. Incubation of the cells was continued for a further 18 h and the extent of DNA fragmentation was analyzed as previously described with some minor modifications (Hockenberry et al., Nature 348 (1990), 334 - 336). Briefly, both the floating cells and the adherent cells which were detached by trypsinization, were lysed in a solution containing 0.5% Triton X100, 10 mM EDTA and 10 mM Tris-HCL pH 7.5 for 30 min on ice. To separate the intact chromatin from the oligonucleosomal fragments, the lysate was centrifuged at 13000 g for 10 min at 4°C and the resulting supernatant was sequentially extracted with phenol followed by phenol/chloroform/iso-amylalcohol (25:24:1; v/v/v). Low molecular weight DNA was precipitated by the addition of 0.5 vol 7 M ammonium acetate and 2.5 vol ice-cold ethanol. The precipitate was washed in 75% ethanol, dissolved in TE-buffer, containing RNase A (20 µg/ml; Boehringer Mannheim), incubated for 30 min at 37°C and subjected to electrophoresis on 1.5% agarose gels.
# [2] = target: T1, chymotrypic activity of the proteasome (Bos taurus, UniProt Q32KL2); assay: Proteasomal activity in lysates of treated BAE cells, substrate Suc-LLVY-AMC; type: cell-based, bovine; settings: total cell lysates after 15 h incubation of BAECs with 50 µM inhibitor
# T1 construct: endogenous in cells; host or cells: primary bovine aortic endothelial cells (BAE), total lysate after 15-16 h treatment of the cells
# T1 sequence (Q32KL2 60-263): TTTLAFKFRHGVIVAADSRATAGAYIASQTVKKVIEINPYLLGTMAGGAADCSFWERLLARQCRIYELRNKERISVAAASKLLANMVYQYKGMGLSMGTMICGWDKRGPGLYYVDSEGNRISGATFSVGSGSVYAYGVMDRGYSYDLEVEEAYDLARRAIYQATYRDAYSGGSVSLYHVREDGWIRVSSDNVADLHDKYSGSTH
# Procedure: (§1) Lysates prepared from BAE cells incubated for 15 hours with 50 µM of the indicated inhibitors were assayed for their ability to suppress proteasomal function by using Suc-LLVY-AMC as substrate for the chymotryptic activity (a) and Z-LLE-AMC as substrate for the post acidic residue cleaving activity (b). Activities are expressed as the relative fluorescence measured after 45 min of incubation with the substrates and reflect the mean of two independent experiments each performed in duplicate.
# (§2) DMSO at a final concentration of 0.1% served as a vehicle-only control. Floating and adherent cells were harvested, lysed by sonication in ice-cold solution of 20 mM Tris-HCI pH 7.5, containing 20% glycerol, centrifuged in a benchtop centrifuge (10 min, 2000 g). […] A total of 15 µg of protein in a volume of 200 µl lysis buffer supplemented with 5 mM CaCl2 was assayed for chymotryptic and peptidyl-glutamyl-hydrolyzing activity in the presence of 10 µM Suc-Leu-Leu-Val-Tyr-AMC (Bachem, Heidelberg, Germany) and 10 µM Z-Leu-Leu-Glu-AMC (Peptide Institute, Osaka, Japan) respectively.
# [3] = tested on: subconfluent primary BAE cells; assay: Apoptotic morphology (phase contrast, Hoechst 33342), BAE cells; type: cell-based, bovine; settings: for morphological changes associated with programmed cell death: subconfluent BAE cells, 50 µM for 15 - 24 h, or 10 µM after 48 hours
# calpain = settings: cited from earlier work
# cathepsin B = cathepsin B (Homo sapiens, UniProt P07858); settings: cited from earlier work
# [4] = target: T2, peptidyl-glutamyl hydrolyzing activity of the proteasome (Bos taurus, UniProt Q3MHN0); assay: Proteasomal activity in lysates of treated BAE cells, substrate Z-LLE-AMC; type: cell-based, bovine; settings: total cell lysates after 15 h incubation of BAECs with 50 µM inhibitor
# T2 construct: endogenous in cells; host or cells: primary bovine aortic endothelial cells (BAE), total lysate after 15-16 h treatment of the cells
# T2 sequence (Q3MHN0 1-239): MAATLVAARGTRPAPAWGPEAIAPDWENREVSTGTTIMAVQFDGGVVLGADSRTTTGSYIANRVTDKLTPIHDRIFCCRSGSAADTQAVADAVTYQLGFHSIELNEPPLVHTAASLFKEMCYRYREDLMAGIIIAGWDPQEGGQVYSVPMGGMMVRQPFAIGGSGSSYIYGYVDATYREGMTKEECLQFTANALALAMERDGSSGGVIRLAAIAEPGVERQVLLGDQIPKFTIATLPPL
# Procedure: as §1, §2
# HUE cells [5] = assay: Viability assay (MIT assay), HUE cells; type: cell-based, human; settings: for EC50: Homo sapiens, 48 h, 48 h incubation
# BAE cells = assay: Viability assay (MIT assay), BAE cells; type: cell-based, bovine; settings: for EC50: Bos taurus
# MDCK epithelial cells = assay: Viability assay (MIT assay), MDCK cells; type: cell-based, canine; settings: for EC50: Canis lupus familiaris, 48 h, 48 h incubation
# Procedure: The indicated values are expressed as the percentage of absorbance at 570 nm relative to the absorbance obtained by DMSO treated (control) cells.
# Madin Darby canine kidney epithelial cells (MDCK; ATCC CLL-34) were grown in Dulbecco's Modified Eagle's Medium (DMEM) containing 10% FCS, penicillin and streptomycin.
# Briefly, the cells were plated either at 3000 cells/well (low density) or 30000 cells/well (high density) onto 96 well plates and grown over night. […] The formazan cystals generated were subsequently dissolved in DMSO and absorption measured at 570 - 650 nm.
# [6] = tested on: chorioallantoic membrane (CAM); assay: Chorioallantoic membrane (CAM) assay; type: in vivo, chick embryo
# Procedure: All experiments with chick embryos were performed in ovo. After aspiration of 2 ml of eggwhite from the pointed side of the egg, a window was cut into the eggshell on embryonic day 3 or 4 (E3, E4). The eggs were resealed with tape and further incubated until E9. […] Approximately 1 cm^2-pieces of the CAM were then cut out, washed in PBS and fixed in Carnoy's solution. After dehydration and embedding in paraffin, 8 µm sections were cut and stained with an anti-BrdU mouse monoclonal antibody (Boehringer Mannheim, Germany) according to the manufacturer's instructions. Counterstaining of the sections was performed with Gill's hematoxylin (Serva, Heidelberg, Germany). Sections were mounted using Aquamount (Merck, Darmstadt, Germany) and photos were taken with a Zeiss Axiophot microscope. […] Control pellets were prepared with an equal amount of Leupeptin or with DMSO as vehicle, respectively. To aid in the visualization of the vascular system, embryos and CAMs were then injected using pulled glass capillaries with 10% Luconyl Blue (BASF, Ludwigshafen, Germany) in PBS, and photographs were taken using a stereomicroscope with camera adapter.
# In eight eggs the windows of the egg shells were enlarged under an operation microscope. After a peripheral incision in the CAM was made, the main artery was incised with a pair of ocular scissors, and a glass capillary (World Precision Instruments, Inc. Germany) pulled to the adequate diameter, was inserted and sealed with a drop of cyanoacrylate (Loctite®). Efflux was enabled by making another incision into a main draining vessel. The vascular system was flushed with up to 5 ml of prewarmed (37 -39°C) physiological saline (0.9% NaCI) under mechanically controlled pressure. […] After complete polymerization of the casting solution, the membranes were dissected and macerated in a solution of 5% potassium hydroxide (Fluka, Neu-Ulm, Germany) at 40°C for 1 - 2 days. The resulting corrosion casts of all specimens were freeze dried, mounted and sputter coated. Examination of the microvascular corrosion casts were carried out with a Stereoscan Mk-250 scanning electron microscope (Cambridge, England). Alternatively, in situ fixed CAM segments were cut out, processed for semi-thin sectioning and stained with methylene blue and Azur II. Selected specimens were trimmed for ultrathin sectioning, and counterstained with uranyl acetate and lead citrate.
# [7] = EC50 confluent versus subconfluent, 2880 min
# [8] = sub (low density, subconfluent)
smiles,measurement,setting,value
CC(=O)N[C@@H](CC(=O)O)C(=O)N[C@@H](CCC(=O)O)C(=O)N[C@H](C(=O)N[C@H](C=O)CC(=O)O)C(C)C [Ac-DEVD-CHO],blocking of PSI-induced morphological changes and DNA fragmentation,HUE cells [1],blocked
CC(=O)N[C@@H](Cc1ccc(O)cc1)C(=O)N[C@H](C(=O)N[C@@H](C)C(=O)N[C@H](C=O)CC(=O)O)C(C)C [Ac-YVAD-CHO],blocking of PSI-induced morphological changes and DNA fragmentation,HUE cells [1],unable to inhibit the action of PSI
CC(C)C[C@H](NC(=O)[C@H]1O[C@@H]1C(=O)O)C(=O)NCCCCN=C(N)N [E64],cleavage of Suc-Leu-Leu-Val-Tyr-AMC,[2],not
CC(C)C[C@@H](C=O)NC(=O)[C@H](CC(C)C)NC(=O)[C@H](CC(C)C)NC(=O)OCc1ccccc1 [LLL] (Cbz-Leu-Leu-Leu-aldehyde),morphological changes associated with programmed cell death,[3],had the same effect
CSCC[C@@H](C=O)NC(=O)[C@H](CC(C)C)NC(=O)[C@H](CC(C)C)NC(C)=O [LLnM] (Ac-Leu-Leu-Met-aldehyde),Ki,calpain,9 nM
same,cleavage of Suc-Leu-Leu-Val-Tyr-AMC,[2],not
same,changes in cellular morphology or viability,[3]; cultured BAE cells,did not induce any changes
same,Ki,cathepsin B,12 nM
CCC[C@@H](C=O)NC(=O)[C@H](CC(C)C)NC(=O)[C@H](CC(C)C)NC(=O)OCc1ccccc1 [LLnV] (Cbz-Leu-Leu-[Nva]-aldehyde),total cellular peptidyl-glutamyl hydrolyzing activity (Z-Leu-Leu-Glu-AMC),[4],similarly reduced
same,x difference,HUE cells [5]; [7],8.1 fold
same,EC50,HUE cells [5]; con (grown to confluency),2500 nM
same,EC50,HUE cells [5]; [8],310 nM
same,cleavage of Suc-Leu-Leu-Val-Tyr-AMC,[2],clearly reduced
same,morphological changes associated with programmed cell death,[3],had the same effect
same,x difference,"BAE cells; BAE, EC50 confluent versus subconfluent, 2880 min",6.8 fold
same,EC50,"BAE cells; 96 h, BAE cells seeded at high density, grown to confluency for 4 days",2720 nM
same,EC50,"BAE cells; BAE, con (grown to confluency for 4 days), 48 h incubation",2720 nM
same,EC50,"BAE cells; BAE, sub (low density, subconfluent), 48 h incubation, viability reduced to 50% of DMSO control",402 nM
same,EC50,MDCK epithelial cells; con (confluent),2950 nM
same,EC50,MDCK epithelial cells; [8],196 nM
same,x difference,MDCK epithelial cells; [7],15.1 fold
CC(=O)N[C@@H](CC(C)C)C(=O)N[C@@H](CC(C)C)C(=O)N[C@H](C=O)CCCNC(=N)N [Leupeptin],cleavage of Suc-Leu-Leu-Val-Tyr-AMC,[2],not
same,%CAMs with non-perfused areas,"[6]; 3.1 µg/disc, methylcellulose disc on CAM for 48 h, Luconyl Blue injection, positive/total CAMs in parenthesis",0 (0/26) %
same,vascular patterning or perfusion efficacy in the CAM,[6]; same amount as PSI (3.1 µg/disc),did not elicit any significant changes

# From patent EP1053750A1, “Use of proteasome-inhibitor for the induction of programmed cell death (apoptosis)” (Max-Planck-Gesellschaft zur Förderung der Wissenschaften …, priority 1999, dated 2000)
